One molecule from US12116344B2, “Crystalline forms of a pharmaceutical compound” (Azafaros B.V., priority 2020, dated 2024) can be followed below.

Each structure is given as a SMILES string.

Data set [1] can be described thus: Stability of the test item in vehicle (acidified water). The settings on record: for Stability in the vehicle: 0.01 to 2 mg/mL. The data set is classed as physicochemical.
In data set [2] the test system is glucosylceramide C16:0 and C18:0. The experiment in a line: Glucosylceramide levels in brain homogenate of NPC mice (HPLC-MS/MS). The class given is in vivo. How it is done: (§1) 24 NPC1 (−/−) mice (groups D to I) were treated per oral gavage (10 mL/kg) with AZ-3102-00 from post-natal day 11 (P11) to post-natal-day 70 (P70). Dosing will start at 1.5 mg/kg from P11 to P25, followed by 3 mg/kg from P26 to P70. Control mice included 6 NPC1 (−/−) and 4 NPC (+/−) mice treated with vehicle and 4 NPC (+/+) mice received AZ-3102-00 (groups A to C).
Brain tissues were homogenized in a solution of ultrapure water:methanol (1:1) with 0.1% formic acid (4 mL for each gram of tissue) using a FastPrep 24™ Microtube homogenizer. Tissues homogenates were then mixed for protein precipitation with a solution of acetonitrile:ultrapure water:methanol (90:5:5) containing 500 nM of GlcCer C17:0 and 0.1% formic acid. After a 5-min incubation at room temperature, the samples were centrifuged for 5 min (13000 rpm, 20° C.) and 50 μL of the supernatants were transferred into a siliconized MTP 96-well plate.
Concentrations of glucosylceramide C16:0 (GlcCer C16:0), glucosylceramide C18:0 (GlcCer C18:0), and glucosylceramide C24:1 (GlcCer C24:1) brain, samples were quantified by HPLC-MS/MS detection in the multiple-reaction-monitoring mode (MRM). Supernatants were analysed by HPLC-MS/MS while using a HALO HILIC column (150*4.6 mm, 2.7 μm) from Advanced Materials Technology for distinguishing between the galactosyl- and -glucosylceramide isomers. […] Analysis of GlcCer C16:0 and GlcCer C18:0 was performed using a gradient with mobile phase A: 5 mM Ammonium Acetate in 94.5% acetonitrile 2.5% Methanol, 2.5% ultrapure water and 0.5% formic acid and mobile phase B: ultrapure Water and 0.1% formic acid. The LLOQ in brain samples for GlcCer 16:0, GlcCer 18:0 and GlcCer 24:1 was […] tissue, respectively.

The subject of a further data set is Hexb (−/−) mice. The experiment in a line: Clinical signs in mice suffering from Sandhoff disease. The settings on record: initial data. The class given is in vivo. How it is done: Mice suffering from Sandhoff disease were administered a therapeutically effective amount of AZ-3102.
Another data set has as its system Calbindin-D28k. The experiment in a line: Brain immunofluorescence of Calbindin-D28k (Purkinje cell marker). The data set is classed as in vivo, mice. How it is done: Mouse right hemi-brains were fixed by immersion in freshly prepared 4% paraformaldehyde in PB (pH 7.4) for two hours at room temperature. Afterwards, hemispheres were transferred to 15% sucrose/PBS and stored at 4° C. until sunk to ensure cryoprotection. Tissue blocks were then trimmed as needed, transferred to cryomolds, embedded in OCT medium, frozen in dry ice-cooled isopentane and stored in an ultra-deep freezer (set at −80° C. target temperature).
Five consecutive cryosections were sagittally cut at 10 μm thickness on a Leica cryotome. The next 25 sections per level were discarded. This collection scheme was repeated for 12 levels and may have been modified to collect from the correct levels, e.g., if brains were smaller due to young age or genotype. In total 12×5=60 sections were collected. Sectioning levels were chosen according to the brain atlas of Paxinos and Franklin (“The Mouse Brain in Stereotaxic Coordinates”, 2nd edition, 2001). Collection of sections started at a level ˜0.2 mm lateral from midline and extend through the hemisphere to ensure systematic random sampling through the target regions (FIGS. 10 and 15). Sections were stored at −20° C. Almost the entire brain was sectioned, so the residual tissue block was disposed when all sections were collected.
For each incubation, a uniform systematic random set of five sections per mouse was selected (one section each from levels 2, 4, 6, 8, 10); for information on systematic random sampling follow this link: http://www.stereoloqy.info/sampling/ […]
Whole slide scans of the stained sections were recorded on a Zeiss automatic microscope AxioScan Z1 with high aperture lenses, equipped with a Zeiss Axiocam 506 mono and a Hitachi 3CCD HV-F202SCL camera and Zeiss ZEN 2.3 software.
Image analysis was done with Image Pro 10 (Media Cybernetics). […] Afterwards, immunofluorescence was quantitatively evaluated within the identified areas.
For quantification we used background correction if necessary and detect immunoreactive objects by adequate thresholding and morphological filtering (size, shape). […]

Data set [3] in a line: Body weight of NPC mice, PND 11 to Week 9. The data set is classed as in vivo. On the procedure:
Body weights and health status were recorded daily for the first week and later once a week.
as §1
Graph represents the progress of body weights [g] per group measured daily during the first treatment week and weekly thereafter.

Where [4] appears, read: whole brain homogenates, daily oral dosing PND 11-70.

`OC[C@H]1[C@@H](O)[C@H](O)[C@@H](O)CN1CCCCCOCc1ccc(-c2ccccc2)c(F)c1` [AZ-3102]: the “Stability in the vehicle” value in data set [1] (freezer (≤−15° C.)) is given as “at least 3 weeks”; in data set [1] (refrigerated (2-8° C.)), “at least 8 days”; in data set [1] (room temperature protected from light), “at least 24 hours”. Besides, the Stability in vehicle entry is reported as “light for at least 24 h, stored under nitrogen” in data set [1] (under nitrogen at room temperature protected from light) and “for at least 21 days (3 weeks)” in data set [1] (under nitrogen frozen in a freezer (≤−15° C.)). In data set [2] (repeat oral administration PND 11-70), the “Levels of glucosylceramide C16:0 and C18:0 in the brain” value is on record as “increased levels”. The “Increase of GlcCer 16:0 compared to vehicle treated animals” value in data set [2] (setting [4]) is “greater than 2 fold”. In addition, the “Increase of GlcCer 18:0 compared to vehicle treated animals” value in data set [2] (setting [4]) is “approximately 9 fold”. Besides, the “Clinical signs of diseased animals” value with Hexb (−/−) mice is given as “improved”. Besides, the “Calbindin-D28k immunofluorescence in the cerebellum” value in the data set with Calbindin-D28k (NPC (−/−) mice, treated versus vehicle, all readouts) was “significantly increased”. In addition, in the data set with Calbindin-D28k (NPC mice, group comparison), the “Calbindin-D28k immunofluorescence in the hippocampus” value was “no significant group differences”. Moreover, the “Cerebellar Purkinje cell loss” value in the data set with Calbindin-D28k (treated compared to vehicle treated NPC (−/−) mice, calbindin-D28k marker) was “significantly limited”. In data set [3] (both genders, daily oral gavage P11-P70, PND 11 to Week 9), the “Body weight gain of treated NPC (−/−) mice versus untreated NPC (−/−) mice” value was “gained more than the NPC (−/−) untreated animals”. The “General health as indicated by average percent body weight gains” value in data set [3] (daily oral gavage P11-P70, 1.5 mg/kg (P11-P25) then 3 mg/kg (P26-P70)) is listed as “not impeded”.
